Tests used:
Format in all cases: in vivo, beagle dogs
[1] = tested on: B. burgdorferi; assay: Study B: SNAP-4Dx ELISA in tick-infected dogs; details: N = 8/group
Text: (§1) Three outer surface proteins (Osp) on B. burgdorferi are important for diagnosis and prevention, and are expressed by the organism in response to its local environment. […] OspF is another surface protein that is generally observed in late-stage disease. The C in […] refers to a 25-amino acid, C6 peptide in the sixth invariable region of an outer membrane lipoprotein (VIsE). Antibody against C6 is highly accurate as a serologic diagnosis of Lyme disease independent of a subject's (e.g., canine) vaccination status. Further, the generation of C6 antibodies implies an active infection with viable spirochetes. Serological methods for detecting B. burgdorfer/Lyme disease were conducted using the IDEXX qualitative SNAP-4Dx ELISA and the Quantitative C6 (Quant C6 or QC6) diagnostic kits, which are enzyme linked immunosorbent assays against the previously described 25-amino-acid C6 peptide. QC6 ELISA data, units/mL, are useful for guidance in initiating and evaluating response to therapy (See Levy S A, O'Connor T P, Hanscom J L, Shields P, et al. Quantitative measurement of a C6 antibody following antibiotic treatment of Borrelia burgdorferi antibody-positive, nonclinical dogs. Clin Vacc Immunol 2008; 15(1):115-119 and Littman M P, Goldstein R E, Labato M A, et al. ACVIM Small Animal Concensus Statement on Lyme Disease in Dogs: Diagnosis, Treatment and Prevention. J Vet Intern Med 2006; 20: 422-434).
(§2) Thirty-two (18 male and 14 female) beagle dogs were sero-negative for Borrelia burgdorferi, not vaccinated with any Borrelia spp vaccines, and acclimated at the study facility for seven days. The study was conducted under National Research Council guidelines (1996). […] Field-caught Ixodes from the northeast USA were placed on the dogs without containment chambers for 10 days; after ticks fed to repletion, dogs were treated with two applications of an approved topical acaricide with a 30-day interval between applications.
(§3) Forty days post-challenge, and prior to antibiotic treatments, blood was collected from each dog as were two skin biopsy punch samples near tick attachment sites. Blood was collected approximately monthly post-treatment. Skin biopsies were taken near the tick attachment site on Days 48/49, 118, 146, 180, and 315. Serum antibodies to Borrelia were assayed using the IDEXX SNAP-4Dx and QC6 ELISA. In cooperation with Cornell University, serum samples were analyzed using fluorescent-bead-based multiplex assays detecting antibodies against B. burgdorferi outer surface proteins OspA, OspC, and OspF. Data were expressed as median fluorescent intensities (MFI), and shown to be specific and sensitive to provide interpretative guidelines regarding infection. The skin biopsies were collected for a polymerase chain reaction (PCR; FlaB) assay and cultured for spirochete detection. At the end of the study, blood and skin biopsies were collected and synovial tissue from the joints were harvested at necropsy.
(§4) On Day 75 and Day 89 Convenia was administered to the eight dogs in T04 (8 mg/kg bodyweight; subcutaneous injection). The other treated groups received their respective regimens daily and orally for 30 days from Days 75 to 104. […] Dogs in T01 served as infected, untreated, controls. Inter-treatment comparisons to evaluate antibiotic efficacy included clinical signs, serology, culture results and pathology.

[2] = tested on: B. burgdorferi; assay: Study B: QC6 ELISA in tick-infected dogs; details: 8 dogs/group
Text: as §1, §2, §3, §4

[3] = tested on: B. burgdorferi outer surface protein OspF; assay: Study B: fluorescent-bead-based multiplex assay, antibodies against OspF; details: for Multiplex Assay OspF: No. Dogs > Positive Threshold (# dogs > 1500): 8 dogs/group
Method: as §2
as §3, with “Data were expressed as median fluorescent intensities (MFI), and shown to be specific and sensitive to provide interpretative guidelines regarding infection.” left out
On Day 75 and Day 89 Convenia was administered to the eight dogs in T04 (8 mg/kg bodyweight; subcutaneous injection). The other treated groups received their respective regimens daily and orally for 30 days from Days 75 to 104. […] Dogs in T01 served as infected, untreated, controls.

[4] = tested on: B. burgdorferi; assay: Study B: microscopic examination of joints and skin at necropsy; details: for Number of Joints with Changes as Described for Lyme disease: N = 8
Method: as §2, §3, §4
At necropsy ten joints were harvested per each dog, formalin-fixed, stained and examined microscopically. Joints included the carpus, elbow, shoulder, stifle and tarsus on both the right and left limbs. Further, a section of skin near tick attachment sites was evaluated from each dog. There were two dogs in the Convenia group (25%) with tissues showing changes as described for Lyme disease, compared to seven controls (87.5%) and three (37.5%) to four (50.0%) dogs in the other antibiotic-treated groups (Table 7). […] The Convenia group had the lowest incidence of joint changes with six affected of 80.

[5] = joints, skin, 8 dogs/group, necropsy

## C[C@H]1c2cccc(O)c2C(=O)C2=C(O)[C@]3(O)C(=O)C(C(N)=O)=C(O)[C@@H](N(C)C)[C@@H]3[C@@H](O)[C@@H]21 [doxycycline]
[1]; Day 48 (pre-treatment; antibiotics from Day 75)
  SNAP-4Dx Positives, Number of Dogs: 6
[1]; Day 111
  SNAP-4Dx Positives, Number of Dogs: 7
[1]; Day 145
  SNAP-4Dx Positives, Number of Dogs: 6
[1]; Day 179
  SNAP-4Dx Positives, Number of Dogs: 1
[1]; Day 221
  SNAP-4Dx Positives, Number of Dogs: 0
[1]; Day 251
  SNAP-4Dx Positives, Number of Dogs: 0
[1]; Day 281
  SNAP-4Dx Positives, Number of Dogs: 0
[1]; Day 315
  SNAP-4Dx Positives, Number of Dogs: 0
[1]; Day −15 (pre-infection)
  SNAP-4Dx Positives, Number of Dogs: 0
[2]; Day 48 (pre-treatment)
  Dogs Sero-converted to B. burgdorferi per QC6 ELISA (≧30 U/mL), (%): 75.0%
  Number of Dogs Sero-converted to B. burgdorferi per QC6 ELISA (≧30 U/mL), No.: 6
[2]; Day 111
  Dogs Sero-converted to B. burgdorferi per QC6 ELISA (≧30 U/mL), (%): 62.5%
  Number of Dogs Sero-converted to B. burgdorferi per QC6 ELISA (≧30 U/mL), No.: 5
[2]; Day 145
  Dogs Sero-converted to B. burgdorferi per QC6 ELISA (≧30 U/mL), (%): 0.0%
  Number of Dogs Sero-converted to B. burgdorferi per QC6 ELISA (≧30 U/mL), No.: 0
[2]; Day 179
  Dogs Sero-converted to B. burgdorferi per QC6 ELISA (≧30 U/mL), (%): 0.0%
  Number of Dogs Sero-converted to B. burgdorferi per QC6 ELISA (≧30 U/mL), No.: 0
[2]; Day 221
  Dogs Sero-converted to B. burgdorferi per QC6 ELISA (≧30 U/mL), (%): 0.0%
  Number of Dogs Sero-converted to B. burgdorferi per QC6 ELISA (≧30 U/mL), No.: 0
[2]; Day 251
  Dogs Sero-converted to B. burgdorferi per QC6 ELISA (≧30 U/mL), (%): 0.0%
  Number of Dogs Sero-converted to B. burgdorferi per QC6 ELISA (≧30 U/mL), No.: 0
[2]; Day 281
  Dogs Sero-converted to B. burgdorferi per QC6 ELISA (≧30 U/mL), (%): 0.0%
  Number of Dogs Sero-converted to B. burgdorferi per QC6 ELISA (≧30 U/mL), No.: 0
[2]; Day 314
  Dogs Sero-converted to B. burgdorferi per QC6 ELISA (≧30 U/mL), (%): 0.0%
  Number of Dogs Sero-converted to B. burgdorferi per QC6 ELISA (≧30 U/mL), No.: 0
[3]; Day 48 (pre-treatment)
  Multiplex Assay OspF: MFI Mean: 943.38 MFI
  Multiplex Assay OspF: No. Dogs > Positive Threshold (# dogs > 1500): 1
[3]; Day 111
  Multiplex Assay OspF: MFI Mean: 1174.38 MFI
  Multiplex Assay OspF: No. Dogs > Positive Threshold (# dogs > 1500): 1
[3]; Day 145
  Multiplex Assay OspF: MFI Mean: 490.63 MFI
  Multiplex Assay OspF: No. Dogs > Positive Threshold (# dogs > 1500): 0
[3]; Day 179
  Multiplex Assay OspF: MFI Mean: 395.88 MFI
  Multiplex Assay OspF: No. Dogs > Positive Threshold (# dogs > 1500): 0
[3]; Day 221
  Multiplex Assay OspF: MFI Mean: 334.75 MFI
  Multiplex Assay OspF: No. Dogs > Positive Threshold (# dogs > 1500): 0
[3]; Day 251
  Multiplex Assay OspF: MFI Mean: 340.88 MFI
  Multiplex Assay OspF: No. Dogs > Positive Threshold (# dogs > 1500): 0
[3]; Day 281
  Multiplex Assay OspF: MFI Mean: 343.63 MFI
  Multiplex Assay OspF: No. Dogs > Positive Threshold (# dogs > 1500): 0
[3]; Day 314
  Multiplex Assay OspF: MFI Mean: 353.25 MFI
  Multiplex Assay OspF: No. Dogs > Positive Threshold (# dogs > 1500): 0
[3]; Day −15 (pre-infection)
  Multiplex Assay OspF: MFI Mean: 113.50 MFI
  Multiplex Assay OspF: No. Dogs > Positive Threshold (# dogs > 1500): 0
[4]; 80 total/group
  Number of Joints with Changes as Described for Lyme disease, Cumulative: 11
[4]; Carpus L
  Number of Joints with Changes as Described for Lyme disease: 1
[4]; Carpus R
  Number of Joints with Changes as Described for Lyme disease: 2
[4]; Elbow L
  Number of Joints with Changes as Described for Lyme disease: 1
[4]; Elbow R
  Number of Joints with Changes as Described for Lyme disease: 1
[4]; Shoulder L
  Number of Joints with Changes as Described for Lyme disease: 1
[4]; Shoulder R
  Number of Joints with Changes as Described for Lyme disease: 0
[4]; Stifle L
  Number of Joints with Changes as Described for Lyme disease: 1
[4]; Stifle R
  Number of Joints with Changes as Described for Lyme disease: 2
[4]; Tarsus L
  Number of Joints with Changes as Described for Lyme disease: 2
[4]; Tarsus R
  Number of Joints with Changes as Described for Lyme disease: 0
[4]; [5]
  No Tissue Changes, # Dogs: 5
  No Tissue Changes, %: 62.5%
  Tissue Changes Described for Lyme Disease, # Dogs: 3
  Tissue Changes Described for Lyme Disease, %: 37.5%

Source: US9265771B2, “Method for treating Lyme disease” (Zoetis Services LLC, priority 2012, dated 2016)
